Test results taken from US20230167505A1, “CIRCULATING TUMOR DNA AS A BIOMARKER FOR LEUKEMIA TREATMENT” (Cardiff Oncology, Inc., priority 2020, published 2023).
“And” between values parts separate entries of the source, which are not always exact repeats. Equal entries are not always repeated.

Legend:
[1] = tested on: patients with relapsed or refractory (R/R) AML
Procedure: Treatment plan and study design: Onvansertib was administered orally, in escalating doses, on days 1 through 5 in combination with either LDAC (arm A, 20 mg/m^2 subcutaneously once daily on days 1 through 10) or decitabine (arm B, 20 mg/m^2 intravenously over 1 hour on days 1 through 5) in a 28-day cycle. […] The primary objectives were to evaluate dose-limiting toxicities (DLTs) and the maximum tolerated dose (MTD) or recommended phase 2 dose (RP2D) of onvansertib. […] Each arm followed a standard 3+3 dose-escalation design, in which onvansertib dose was escalated by 50% increments. […] If a DLT was reported, an additional 3 patients were treated at that dose. If ≥2 patients experienced a DLT, the dose was considered nontolerated, and lower doses were explored in subsequent cohorts. […] The MTD was defined as the highest dose achieved at which no more than one of six subjects experienced a DLT. The RP2D was determined based on the assessment of safety, pharmacokinetics, and preliminary efficacy in subjects treated at a dose cleared for safety. For the study, the primary endpoint was to evaluate first-cycle dose-limiting toxicities and the MTD. Secondary and exploratory endpoints included safety, pharmacokinetics, antileukemic activity, and response biomarkers.
Safety: Patients were evaluable for safety if they had received at least one dose of onvansertib. […] Investigators assessed causality as either unrelated, unlikely, possibly, probably, or definitely related to study drugs. DLTs (defined in Table 1) were evaluated during the first cycle of treatment.

R/R AML = assay: Phase 2 anti-leukemic activity, onvansertib with decitabine; type: in vivo, human; conditions: Phase 2, onvansertib 60 mg/m^2 + decitabine
[2] = all patients (N = 40), onvansertib + LDAC or decitabine, patients n (%)
[3] = phase Ib, onvansertib + LDAC or decitabine

SMILES: CN1CCN(c2ccc(OC(F)(F)F)c(Nc3ncc4c(n3)-c3c(c(C(N)=O)nn3CCO)CC4)c2)CC1 [onvansertib, 1-(2-hydroxyethyl)-8-{[5-(4-methylpiperazin-1-yl)-2-(trifluoromethoxy)phenyl]amino}-4,5-dihydro-1H-pyrazolo [4,3-h] quinazoline-3-carboxamide]
- G3 stomatitis possibly related to onvansertib ([1]; 3 patients: one at 60 mg/m^2, two at 90 mg/m^2): 8%
- patients discontinued from therapy because of treatment-related AEs ([1]; G2 fatigue, G3 mucositis (DLT), G4 rash (DLT)): Three
- Treatment-emergent AE: Anemia, All grades (%) [1, 2]: 15 (37.5) %
- Treatment-emergent AE: Anemia, Grade 1-2 (%) [1, 2]: 1 (2.5) %
- Treatment-emergent AE: Blood bilirubin increased, All grades (%) [1, 2]: 4 (10) %
- Treatment-emergent AE: Blood bilirubin increased, Grace 3-4 (%) [1, 2]: 1 (2.5) %
- Treatment-emergent AE: Blood bilirubin increased, Grade 1-2 (%) [1, 2]: 3 (7.5) %
- Treatment-emergent AE: Constipation, All grades (%) [1, 2]: 6 (15) %
- Treatment-emergent AE: Constipation, Grade 1-2 (%) [1, 2]: 6 (15) %
- Treatment-emergent AE: Cough, All grades (%) [1, 2]: 6 (15) %
- Treatment-emergent AE: Cough, Grade 1-2 (%) [1, 2]: 6 (15) %
- Treatment-emergent AE: Decreased appetite, All grades (%) [1, 2]: 6 (15) %
- Treatment-emergent AE: Decreased appetite, Grade 1-2 (%) [1, 2]: 6 (15) %
- Treatment-emergent AE: Diarrhea, All grades (%) [1, 2]: 8 (20) %
- Treatment-emergent AE: Diarrhea, Grade 1-2 (%) [1, 2]: 8 (20) %
- Treatment-emergent AE: Dizziness, All grades (%) [1, 2]: 5 (12.5) %
- Treatment-emergent AE: Dizziness, Grade 1-2 (%) [1, 2]: 5 (12.5) %
- Treatment-emergent AE: Dyspnea, All grades (%) [1, 2]: 10 (25) %
- Treatment-emergent AE: Dyspnea, Grace 3-4 (%) [1, 2]: 2 (5) %
- Treatment-emergent AE: Dyspnea, Grade 1-2 (%) [1, 2]: 8 (20) %
- Treatment-emergent AE: Edema, All grades (%) [1, 2]: 8 (20) %
- Treatment-emergent AE: Edema, Grace 3-4 (%) [1, 2]: 2 (5) %
- Treatment-emergent AE: Edema, Grade 1-2 (%) [1, 2]: 6 (15) %
- Treatment-emergent AE: Epistaxis, All grades (%) [1, 2]: 6 (15) %
- Treatment-emergent AE: Epistaxis, Grade 1-2 (%) [1, 2]: 6 (15) %
- Treatment-emergent AE: Fatigue, All grades (%) [1, 2]: 14 (35) %
- Treatment-emergent AE: Fatigue, Grade 1-2 (%) [1, 2]: 14 (35) %
- Treatment-emergent AE: Febrile neutropenia, All grades (%) [1, 2]: 12 (30) %
- Treatment-emergent AE: Headache, All grades (%) [1, 2]: 4 (10) %
- Treatment-emergent AE: Headache, Grade 1-2 (%) [1, 2]: 4 (10) %
- Treatment-emergent AE: Leukopenia, All grades (%) [1, 2]: 5 (12.5) %
- Treatment-emergent AE: Leukopenia, Grace 3-4 (%) [1, 2]: 12.5% and 5 (12.5) %
- Treatment-emergent AE: Lung infection, All grades (%) [1, 2]: 4 (10) %
- Treatment-emergent AE: Lung infection, Grace 3-4 (%) [1, 2]: 4 (10) %
- Treatment-emergent AE: Nausea/vomiting, All grades (%) [1, 2]: 12 (30) %
- Treatment-emergent AE: Nausea/vomiting, Grade 1-2 (%) [1, 2]: 12 (30) %
- Treatment-emergent AE: Neutropenia, All grades (%) [1, 2]: 10 (25) %
- Treatment-emergent AE: Oropharyngeal pain, All grades (%) [1, 2]: 4 (10) %
- Treatment-emergent AE: Oropharyngeal pain, Grade 1-2 (%) [1, 2]: 4 (10) %
- Treatment-emergent AE: Pyrexia, All grades (%) [1, 2]: 5 (12.5) %
- Treatment-emergent AE: Pyrexia, Grade 1-2 (%) [1, 2]: 5 (12.5) %
- Treatment-emergent AE: Rash/pruritus, All grades (%) [1, 2]: 11 (27.5) %
- Treatment-emergent AE: Rash/pruritus, Grace 3-4 (%) [1, 2]: 1 (2.5) %
- Treatment-emergent AE: Rash/pruritus, Grade 1-2 (%) [1, 2]: 10 (25) %
- Treatment-emergent AE: Stomatitis, All grades (%) [1, 2]: 9 (22.5) %
- Treatment-emergent AE: Stomatitis, Grace 3-4 (%) [1, 2]: 12.5% and 5 (12.5) %
- Treatment-emergent AE: Stomatitis, Grade 1-2 (%) [1, 2]: 4 (10) %
- Treatment-emergent AE: Thrombocytopenia, All grades (%) [1, 2]: 12 (30) %
- Treatment-emergent AE: Thrombocytopenia, Grade 1-2 (%) [1, 2]: 2 (5) %
- G3 and G4 AE possibly related to onvansertib: anemia ([1]; all patients, N = 40): 12.5%
- G3 and G4 AE possibly related to onvansertib: leukopenia ([1]; all patients, N = 40): 5%
- G3 and G4 AE possibly related to onvansertib: neutropenia ([1]; all patients, N = 40): 15%
- G3 and G4 AE possibly related to onvansertib: thrombocytopenia ([1]; all patients, N = 40): 12.5%
- patients experiencing a DLT during the first cycle ([1]; arm B (decitabine), dose level 6 (90 mg/m^2), grade 3 mucositis and grade 4 rash): 2 of 6 and 2 of the 6
- MTD of onvansertib in combination with decitabine ([1]; arm B, oral days 1-5 + decitabine 20 mg/m^2 IV days 1-5, 28-day cycle): 60 mg/m^2
- DLTs ([1]; first five dose levels (12-60 mg/m^2), both arms (LDAC, decitabine)): no DLTs reported
- tolerability ([1]; first five dose levels (12-60 mg/m^2), with LDAC or decitabine): well tolerated
- skin toxicities ([1]; higher incidence and higher grade at 90 mg/m^2): observed at the last two dose levels of onvansertib (60 and 90 mg/m^2)
- SAEs considered as possibly related to onvansertib ([1]; of 71 SAEs): 13%
- patients with dose reduction of onvansertib due to hematologic toxicities ([1]; one from 18 mg/m^2, one from 27 mg/m^2 dose level): Two
- patients with SAEs ([1]; phase Ib, both arms): 33 patients
- total serious AEs (SAE) reported ([1]; phase Ib, both arms): 71
- Serious adverse event Aphasia: Number of events [1, 3]: 1
- Serious adverse event Aphasia: Number of patients [1, 3]: 1
- Serious adverse event Appendicitis: Number of events [1, 3]: 1
- Serious adverse event Appendicitis: Number of patients [1, 3]: 1
- Serious adverse event Arthralgia: Number of events [1, 3]: 1
- Serious adverse event Arthralgia: Number of patients [1, 3]: 1
- Serious adverse event Asthenia: Number of events [1, 3]: 1
- Serious adverse event Asthenia: Number of patients [1, 3]: 1
- Serious adverse event Atrial fibrillation: Number of events [1, 3]: 1
- Serious adverse event Atrial fibrillation: Number of patients [1, 3]: 1
- Serious adverse event Back pain: Number of events [1, 3]: 1
- Serious adverse event Back pain: Number of patients [1, 3]: 1
- Serious adverse event Disease progression: Number of events [1, 3]: 1
- Serious adverse event Disease progression: Number of patients [1, 3]: 1
- Serious adverse event Dyspnea: Number of events [1, 3]: 1
- Serious adverse event Dyspnea: Number of patients [1, 3]: 1
- Serious adverse event Edema peripheral: Number of events [1, 3]: 1
- Serious adverse event Edema peripheral: Number of patients [1, 3]: 1
- Serious adverse event Face edema: Number of events [1, 3]: 1
- Serious adverse event Face edema: Number of patients [1, 3]: 1
- Serious adverse event Febrile neutropenia: Number of events [1, 3]: 25
- Serious adverse event Febrile neutropenia: Number of patients [1, 3]: 17
- Serious adverse event Hematuria: Number of events [1, 3]: 1
- Serious adverse event Hematuria: Number of patients [1, 3]: 1
- Serious adverse event Hemorrhage intracranial: Number of events [1, 3]: 1
- Serious adverse event Hemorrhage intracranial: Number of patients [1, 3]: 1
- Serious adverse event Hyponatremia: Number of events [1, 3]: 1
- Serious adverse event Hyponatremia: Number of patients [1, 3]: 1
- Serious adverse event Infusion related reaction: Number of events [1, 3]: 1
- Serious adverse event Infusion related reaction: Number of patients [1, 3]: 1
- Serious adverse event Leukemic infiltration: Number of events [1, 3]: 1
- Serious adverse event Leukemic infiltration: Number of patients [1, 3]: 1
- Serious adverse event Lower gastrointestinal hemorrhage: Number of events [1, 3]: 1
- Serious adverse event Lower gastrointestinal hemorrhage: Number of patients [1, 3]: 1
- Serious adverse event Lung consolidation: Number of events [1, 3]: 1
- Serious adverse event Lung consolidation: Number of patients [1, 3]: 1
- Serious adverse event Lung infection: Number of events [1, 3]: 5
- Serious adverse event Lung infection: Number of patients [1, 3]: 5
- Serious adverse event Neck pain: Number of events [1, 3]: 1
- Serious adverse event Neck pain: Number of patients [1, 3]: 1
- Serious adverse event Neutrophil count decreased: Number of events [1, 3]: 1
- Serious adverse event Neutrophil count decreased: Number of patients [1, 3]: 1
- Serious adverse event Pain in jaw: Number of events [1, 3]: 1
- Serious adverse event Pain in jaw: Number of patients [1, 3]: 1
- Serious adverse event Palmar-plantar erythrodysaesthesia syndrome: Number of events [1, 3]: 1
- Serious adverse event Palmar-plantar erythrodysaesthesia syndrome: Number of patients [1, 3]: 1
- Serious adverse event Pharyngeal edema: Number of events [1, 3]: 1
- Serious adverse event Pharyngeal edema: Number of patients [1, 3]: 1
- Serious adverse event Physical deconditioning: Number of events [1, 3]: 1
- Serious adverse event Physical deconditioning: Number of patients [1, 3]: 1
- Serious adverse event Pleural effusion: Number of events [1, 3]: 1
- Serious adverse event Pleural effusion: Number of patients [1, 3]: 1
- Serious adverse event Pneumonia fungal: Number of events [1, 3]: 1
- Serious adverse event Pneumonia fungal: Number of patients [1, 3]: 1
- Serious adverse event Pneumonia: Number of events [1, 3]: 3
- Serious adverse event Pneumonia: Number of patients [1, 3]: 3
- Serious adverse event Pulmonary mass: Number of events [1, 3]: 1
- Serious adverse event Pulmonary mass: Number of patients [1, 3]: 1
- Serious adverse event Pyrexia: Number of events [1, 3]: 2
- Serious adverse event Pyrexia: Number of patients [1, 3]: 2
- Serious adverse event Rash maculo-papular: Number of events [1, 3]: 1
- Serious adverse event Rash maculo-papular: Number of patients [1, 3]: 1
- Serious adverse event Septic shock: Number of events [1, 3]: 1
- Serious adverse event Septic shock: Number of patients [1, 3]: 1
- Serious adverse event Seroma: Number of events [1, 3]: 1
- Serious adverse event Seroma: Number of patients [1, 3]: 1
- Serious adverse event Skin lesion: Number of events [1, 3]: 1
- Serious adverse event Skin lesion: Number of patients [1, 3]: 1
- Serious adverse event Soft tissue infection: Number of events [1, 3]: 1
- Serious adverse event Soft tissue infection: Number of patients [1, 3]: 1
- Serious adverse event Staphylococcal bacteremia: Number of events [1, 3]: 1
- Serious adverse event Staphylococcal bacteremia: Number of patients [1, 3]: 1
- Serious adverse event Stomatitis: Number of events [1, 3]: 1
- Serious adverse event Stomatitis: Number of patients [1, 3]: 1
- Serious adverse event Tumor lysis syndrome: Number of events [1, 3]: 1
- Serious adverse event Tumor lysis syndrome: Number of patients [1, 3]: 1
- Serious adverse event Urine output decreased: Number of events [1, 3]: 1
- Serious adverse event Urine output decreased: Number of patients [1, 3]: 1
- deaths while on treatment ([1]; phase Ib, all related to AML or its complications): Three
- CR/CRi rate (R/R AML): 17%
